≈ marks a conversion by molar mass, not a printed value.
Assays:
[1] = system: aminopeptidase activity in human plasma sample; assay: Enzyme activity assay in microdevice with human plasma, aminopeptidase probes; format: biochemical; details: 50 μM probe, human plasma 1,000 fold dilution, 37° C. for 2 hours
Procedure: • 1. Ala-sHMRG as a fluorescent probe for detecting aminopeptidase activity was diluted with an assay buffer to 100 μM. The composition of the assay buffer is 100 mM HEPES-NaOH (pH 7.4), 1 mM MgCl2, 0.1% BSA, 1 mM DTT, 1 mM Triton X-100, • 2. Next, a human plasma sample was diluted by 500 times with the above assay buffer, and mixed in an equal amount with the diluted solution of the probe. At this time, the final concentrations of both are 50 μM for Ala-sHMRG and 1,000 fold dilution for the human plasma sample. • 3. The mixed solution of both was then added to a microdevice, followed by the addition of sealing oil to enclose the solution in each well. • 4. The microdevice in which the solution was enclosed was incubated at 37° C. for 4 hours, and then the fluorescence intensity of each well was measured with a fluorescence microscope.
• 1. Leu-sHMRG as a fluorescent probe for detecting aminopeptidase activity was diluted with an assay buffer to 100 μM. The composition of the assay buffer is 100 mM HEPES-NaOH (pH 7.4), 1 mM MgCl2, 1 mM DTT, 3 mM Triton X-100. • 2. Next, a human plasma sample was diluted by 2,500 times with the above assay buffer, and mixed in an equal amount with the diluted solution of the probe. At this time, the final concentrations of both are 50 μM for Leu-sHMRG and 5,000 fold dilution for the human plasma sample. • 3. The mixed solution of both was then added to a microdevice, followed by the addition of sealing oil to enclose the solution in each well. • 4. The microdevice in which the solution was enclosed was incubated at 37° C. for 4 hours, and then the fluorescence intensity of each well was measured with a fluorescence microscope.
(§1) • 5. Met-sHMRG as a fluorescent probe for detecting aminopeptidase activity was diluted with an assay buffer to 100 μM. The composition of the assay buffer is 100 mM HEPES-NaOH (pH 7.4), 1 mM MgCl2, 1 mM CaCl2, 1 mM DTT, 3 mM Triton X-100. • 6. Next, a human plasma sample was diluted by 500 times with the above assay buffer, and mixed in an equal amount with the diluted solution of the probe. At this time, the final concentrations of both are 50 μM for Met-sHMRG and 1,000 fold dilution for the human plasma sample. • 7. The mixed solution of both was then added to a microdevice, followed by the addition of sealing oil to enclose the solution in each well. • 8. The microdevice in which the solution was enclosed was incubated at 37° C. for 2 hours, and then the fluorescence intensity of each well was measured with a fluorescence microscope.
as §1, with “• 9. Tyr-sHMRG” for “• 5. Met-sHMRG”, “• 10.” for “• 6.”, “for Tyr-sHMRG” for “for Met-sHMRG”, “• 11.” for “• 7.”, “• 12.” for “• 8.”, “for 4” for “for 2”
• 1. Lys-sHMRG as a fluorescent probe for detecting aminopeptidase activity was diluted with an assay buffer to 100 μM. The composition of the assay buffer is 100 mM HEPES-NaOH (pH 7.4), 1 mM MgCl2, 1 mM CaCl2, 1 mM DTT, 3 mM Triton X-100. • 2. Next, a human plasma sample was diluted by 10,000 times with the above assay buffer, and mixed in an equal amount with the diluted solution of the probe. At this time, the final concentrations of both are 50 μM for Lys-sHMRG and 20,000 fold dilution for the human plasma sample. • 3. […]

[2] = Solubility in sealing oil (hexadecane); format: physicochemical; details: oil or lipid, kinetic from dmso stock, room temperature (25° C.), three tests, average value±standard deviation
Procedure: That is, 1 μL of a 10 mM DMSO solution of the test compound was added with respect to 100 μL of hexadecane as sealing oil, and the mixture was sonicated and suspended at room temperature (25° C.) for 1 minute. Thereafter, the solution was centrifuged for 30 seconds, 50 μL of the supernatant was collected and mixed with 100 μL of methanol, and a compound dissolved in hexadecane was extracted. Thereafter, the methanol solution from which the compound was extracted was analyzed by ultra performance liquid chromatography (UPLC) (eluent: A/B=95/5>5/95, A: 0.1% formic acid-containing 100% H2O, B: 0.1% formic acid-containing 100% CH3CN), and the concentration of the compound in the methanol solution was calculated from the peak area. In the calculation of the solution concentration using the UPLC peak area, solutions having a plurality of concentrations were prepared and measured for each compound, then a calibration curve was prepared (FIG. 5), and the calculation was performed according to the calibration curve.

[3] = biological target: T1, aminopeptidase A (Homo sapiens, UniProt Q07075); assay: Signal/noise ratio of enzymolysate in cuvette; format: biochemical; details: 10 μM probe, 170 ng/mL aminopeptidase A, 25° C. 11 hours, @616 nm
Procedure: (§2) For two types of compounds Glu-sSiR (PB206/Example 12) and GP-sHMRG (PB109/Example 7), the signal/noise ratios of the enzymolysates before and after the enzyme reaction in the cuvette and the microdevice were each measured as follows. In the following experiments, the composition of the assay buffer is 100 mM HEPES-NaOH (pH 7.4), 1 mM MgCl2, 1 mM CaCl2), […].
Glu-sSiR was diluted with an assay buffer so as to be 10 μM, then added to a quartz cuvette, and the fluorescence spectrum before the enzyme reaction was measured with a fluorometer (excitation wavelength: 570 nm). Thereafter, aminopeptidase A was added so that the concentration in the solution was 170 ng/mL, the solution was incubated at 25° C. for 11 hours, and then the fluorescence spectrum was measured. The fluorescence spectra before and after the enzyme reaction were compared, the ratio of the values at a wavelength at which the fluorescence intensity was maximized was calculated as the signal/noise ratio of the enzymolysate, the ratio was 32 times (@616 nm) (see FIG. 7A).

[4] = biological target: T1, aminopeptidase A; assay: Signal/noise ratio of enzymolysate in microdevice; format: biochemical
Procedure: as §2
For Glu-sSiR, three kinds of solutions of (i) only an assay buffer, (ii) 30 μM of Glu-sSiR, and (iii) 30 μM of Glu-sSiR and 0.2 ng/mL of aminopeptidase A were prepared, and each solution was added to a microdevice, followed by the addition of sealing oil to enclose the solution in each well. The microdevice in which the solution was enclosed was incubated at 37° C. for 4 hours, and then the fluorescence intensity of each well was measured with a fluorescence microscope. When a difference between the average values of the fluorescence intensities of the respective wells in (ii) and (i) was defined as noise, a difference between the average value of the fluorescence intensities of the wells in which the enzyme was encapsulated in (iii) and the average value of the fluorescence intensities of the respective wells in (i) was defined as a signal, and a ratio of these values was calculated as the signal/noise ratio of the enzymolysate, the ratio was 8.3 times (see FIG. 8, panel A). […]

T1 sequence (Q07075 whole entry, species assumed): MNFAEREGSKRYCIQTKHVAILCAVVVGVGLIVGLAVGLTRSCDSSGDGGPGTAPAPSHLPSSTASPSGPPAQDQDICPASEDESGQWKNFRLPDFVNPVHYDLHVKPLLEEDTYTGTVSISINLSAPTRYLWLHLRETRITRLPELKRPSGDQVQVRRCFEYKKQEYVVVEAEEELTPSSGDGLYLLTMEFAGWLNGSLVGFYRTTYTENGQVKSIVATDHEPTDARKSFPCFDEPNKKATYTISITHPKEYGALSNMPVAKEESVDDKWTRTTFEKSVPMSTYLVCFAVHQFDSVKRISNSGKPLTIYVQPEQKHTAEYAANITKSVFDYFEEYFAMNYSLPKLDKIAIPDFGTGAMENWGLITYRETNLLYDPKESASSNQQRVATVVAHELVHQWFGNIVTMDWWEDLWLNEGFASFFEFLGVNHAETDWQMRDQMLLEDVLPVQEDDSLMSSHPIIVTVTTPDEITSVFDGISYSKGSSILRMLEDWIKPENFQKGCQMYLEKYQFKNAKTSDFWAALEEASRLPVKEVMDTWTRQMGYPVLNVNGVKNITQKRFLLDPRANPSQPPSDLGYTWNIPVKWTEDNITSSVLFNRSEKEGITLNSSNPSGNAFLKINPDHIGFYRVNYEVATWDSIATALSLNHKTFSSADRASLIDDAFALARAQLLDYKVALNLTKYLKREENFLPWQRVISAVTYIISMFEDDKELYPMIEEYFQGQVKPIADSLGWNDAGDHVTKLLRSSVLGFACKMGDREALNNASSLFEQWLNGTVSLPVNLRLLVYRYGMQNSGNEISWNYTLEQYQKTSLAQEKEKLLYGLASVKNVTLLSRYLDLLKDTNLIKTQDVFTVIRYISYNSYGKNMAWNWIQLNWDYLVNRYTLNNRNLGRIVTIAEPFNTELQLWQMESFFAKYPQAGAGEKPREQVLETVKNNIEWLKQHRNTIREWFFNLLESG

Cc1ccc(S(=O)(=O)O)cc1C1=C2C=CC(=N)C=C2[Si](C)(C)c2cc(NC(=O)[C@@H](N)CCC(=O)O)ccc21 [Glu-sSiR]
fluorescence intensity of wells in which the reacting enzyme was enclosed [1]: increase in fluorescence intensity was observed | solubility at 1 min [2]: 0.3 ± 0.096 µM (≈ 0.166 µg/mL) | signal/noise ratio of the enzymolysate [3]: 32 times | ratio of the signal/noise ratio in the microdevice to the signal/noise ratio in the cuvette ([4]; aminopeptidase A): 0.26 | signal/noise ratio of the enzymolysate ([4]; microdevice, 30 μM probe, 0.2 ng/mL aminopeptidase A, 37° C. 4 hours): 8.3 times

From patent US20250313879A1, “Fluorescent Probe for Detecting Peptide Bond Hydrolase” (The University of Tokyo, priority 2022, published 2025)
